Reference: publication PMC7587356, “High-Throughput Screening for Inhibitors of the SARS-CoV-2 Protease Using a FRET-Biosensor” (Molecules, 2020)
Structures can show the parent of a compound that is named as a salt. Where two headings read alike, the source gives them in different places.

Molecular target: SARS-CoV-2 3CLpro (Severe acute respiratory syndrome coronavirus 2, UniProt P0DTD1)
Assay: biochemical
Assay type: biochemical
Parameters: Replicate_1 / Replicate_2 / mean / mean (LOPAC_screen_w_protease): unit not given here
Conditions: for inhibition at 5 µM: 4 h; for mean (LOPAC screen with protease) / Replicate_1 (LOPAC screen with protease) / Replicate_2 (LOPAC screen with protease): primary screen at 5 µM
[1] = LOPAC1280 primary screen with protease, 5 µM compound, mean of two replicates
[2] = LOPAC1280 primary screen with protease, 5 µM compound, replicate 1
[3] = LOPAC1280 primary screen with protease, 5 µM compound, replicate 2
[4] = sheet LOPAC_screen_w_protease, LOPAC1280 primary screen with protease, 5 µM compound, mean of the two replicates, read-out: mean
[5] = sheet LOPAC_screen_w_protease, LOPAC1280 primary screen with protease, 5 µM compound, replicate 1, read-out: Replicate_1
[6] = sheet LOPAC_screen_w_protease, LOPAC1280 primary screen with protease, 5 µM compound, replicate 2, read-out: Replicate_2
[7] = sheet LOPAC_screen_w_protease, LOPAC1280 at 5 µM, mean of two replicates, read-out: mean
[8] = sheet LOPAC_screen_w_protease, LOPAC1280 at 5 µM, replicate 1, read-out: Replicate_1
[9] = sheet LOPAC_screen_w_protease, LOPAC1280 at 5 µM, replicate 2, read-out: Replicate_2
[10] = sheet LOPAC_screen_w_protease, mean of two replicates
[11] = sheet LOPAC_screen_w_protease, replicate 1
[12] = sheet LOPAC_screen_w_protease, replicate 2
[13] = sheet LOPAC_screen_w_protease, LOPAC1280 at 5 µM, mean of two replicates
[14] = sheet LOPAC_screen_w_protease, LOPAC1280 at 5 µM, replicate 1
[15] = sheet LOPAC_screen_w_protease, LOPAC1280 at 5 µM, replicate 2
[16] = sheet LOPAC_screen_w_protease, LOPAC1280 primary screen at 5 µM, with protease, mean of the two replicates
[17] = sheet LOPAC_screen_w_protease, LOPAC1280 primary screen at 5 µM, with protease, replicate 1
[18] = sheet LOPAC_screen_w_protease, LOPAC1280 primary screen at 5 µM, with protease, replicate 2
[19] = sheet LOPAC_screen_w_protease, primary screen with protease, compound at 5 µM, mean of two replicates
[20] = sheet LOPAC_screen_w_protease, primary screen with protease, compound at 5 µM, replicate 1
[21] = sheet LOPAC_screen_w_protease, primary screen with protease, compound at 5 µM, replicate 2
[22] = sheet LOPAC_screen_w_protease, primary screen with protease, 5 µM, mean of two replicates
[23] = sheet LOPAC_screen_w_protease, primary screen with protease, 5 µM, replicate 1
[24] = sheet LOPAC_screen_w_protease, primary screen with protease, 5 µM, replicate 2
[25] = sheet LOPAC_screen_w_protease, LOPAC1280 primary screen at 5 µM, with protease, mean of the two replicates, read-out: mean
[26] = sheet LOPAC_screen_w_protease, LOPAC1280 primary screen at 5 µM, with protease, replicate 1, read-out: Replicate_1
[27] = sheet LOPAC_screen_w_protease, LOPAC1280 primary screen at 5 µM, with protease, replicate 2, read-out: Replicate_2
[28] = sheet LOPAC_screen_w_protease, primary screen with protease, mean of two replicates
[29] = sheet LOPAC_screen_w_protease, primary screen with protease, replicate 1
[30] = sheet LOPAC_screen_w_protease, primary screen with protease, replicate 2
[31] = LOPAC1280 primary screen with protease, 5 µM compound, mean of the two replicates

CNC[C@H](O)c1ccc(O)c(O)c1 [(-)-Epinephrine bitartrate]
inhibition at 5 µM (read-out: Replicate_1): 5.37%
inhibition at 5 µM (read-out: Replicate_2): 0.847%
inhibition at 5 µM (read-out: mean): 3.11%

COc1ccc2[nH]c(I)c(CCNC(C)=O)c2c1 [2-Iodomelatonin]
mean (sheet LOPAC_screen_w_protease, LOPAC1280 primary screen with protease, 5 µM compound, mean of the two replicates): 5.613
Replicate_1 (sheet LOPAC_screen_w_protease, LOPAC1280 primary screen with protease, 5 µM compound, replicate 1): 6.946
Replicate_2 (sheet LOPAC_screen_w_protease, LOPAC1280 primary screen with protease, 5 µM compound, replicate 2): 4.28

COc1ccc2[nH]cc(CCNC(C)=O)c2c1 [Melatonin]
inhibition at 5 µM (sheet LOPAC_screen_w_protease, primary screen with protease, mean of two replicates, read-out: mean): 2.28%
inhibition at 5 µM (sheet LOPAC_screen_w_protease, primary screen with protease, replicate 1, read-out: Replicate_1): 3.18%
inhibition at 5 µM (sheet LOPAC_screen_w_protease, primary screen with protease, replicate 2, read-out: Replicate_2): 1.38%

NC(CO)(CO)CO.O=C(c1ccccc1)c1ccc2n1CCC2C(=O)O (stereo not drawn) [Ketorolac tris salt]
mean (LOPAC_screen_w_protease) [1]: 1.7087
Replicate_1 (LOPAC_screen_w_protease) [2]: 1.974
Replicate_2 (LOPAC_screen_w_protease) [3]: 1.443

C=C/C(C)=C/[C@@]1(C)SC(=O)C(C)=C1O [Thiolactomycin]
inhibition at 5 µM [4]: 4.16%
inhibition at 5 µM [5]: 2.88%
inhibition at 5 µM [6]: 5.43%

Cc1ccc(C(=O)Nc2ccc(S(=O)(=O)O)c3cc(S(=O)(=O)O)cc(S(=O)(=O)O)c23)cc1NC(=O)c1cccc(NC(=O)Nc2cccc(C(=O)Nc3cc(C(=O)Nc4ccc(S(=O)(=O)O)c5cc(S(=O)(=O)O)cc(S(=O)(=O)O)c45)ccc3C)c2)c1 [Suramin hexasodium]
inhibition at 5 µM [7]: 1.22%
inhibition at 5 µM [8]: 2.66%
inhibition at 5 µM [9]: -0.222%

Br.C=CCN1CCc2cccc3c2[C@H]1Cc1ccc(O)c(O)c1-3 [R(-)-N-Allylnorapomorphine hydrobromide]
mean (LOPAC screen with protease) [10]: 97.2039
Replicate_1 (LOPAC screen with protease) [11]: 99.2109
Replicate_2 (LOPAC screen with protease) [12]: 95.1969

N=C(N)N/N=C/c1c(Cl)cccc1Cl [Guanabenz acetate]
inhibition at 5 µM [7]: 1.09%
inhibition at 5 µM [8]: 2.57%
inhibition at 5 µM [9]: -0.398%

O=C1CCC(N2C(=O)c3ccccc3C2=O)C(=O)N1 (racemic) [(±)-Thalidomide]
mean [13]: 1.21
Replicate_1 [14]: 0.4169
Replicate_2 [15]: 2.003

O=[N+]([O-])c1ccc(O[C@@H]2O[C@H](CO)[C@@H](O)[C@H](O)[C@H]2F)c([N+](=O)[O-])c1
mean [16]: 0.5921
Replicate_1 [17]: 1.883
Replicate_2 [18]: -0.6983

CC(C)[C@@]1(NC(=O)[C@@H]2C[C@@H]3c4cccc5[nH]cc(c45)C[C@H]3N(C)C2)O[C@@]2(O)[C@@H]3CCCN3C(=O)[C@H](Cc3ccccc3)N2C1=O.CS(=O)(=O)O [Dihydroergocristine methanesulfonate]
mean [19]: 2.761
Replicate_1 [20]: 2.962
Replicate_2 [21]: 2.561

COc1c2c(nc3ccccc13)OC(C(C)(O)CO)C2 (stereo not drawn) [Dubinidine]
mean [19]: 2.93
Replicate_1 [20]: 4.833
Replicate_2 [21]: 1.026

Brc1ccc([C@H]2CN3CCSC3=N2)cc1.O=C(O)C(=O)O [S(-)-p-Bromotetramisole oxalate]
mean [22]: -0.07526
Replicate_1 [23]: 0.5493
Replicate_2 [24]: -0.6998

Cl.Cl.c1ccc(CCCN2CCN(CCOC(c3ccccc3)c3ccccc3)CC2)cc1 [GBR-12935 dihydrochloride]
mean [13]: 0.9925
Replicate_1 [14]: 2.277
Replicate_2 [15]: -0.2925

CC[C@H](C)C(=O)O[C@H]1CCC=C2C=C[C@H](C)[C@H](CC[C@@H]3C[C@@H](O)CC(=O)O3)[C@H]21 [Mevastatin]
inhibition at 5 µM [4]: 4.58%
inhibition at 5 µM [5]: 3.98%
inhibition at 5 µM [6]: 5.17%

N=C(N)N1CCc2ccccc2C1 [Debrisoquin sulfate]
inhibition at 5 µM (read-out: Replicate_1): 2.87%
inhibition at 5 µM (read-out: Replicate_2): 3.04%
inhibition at 5 µM (read-out: mean): 2.96%

Nc1nc2c(nc(Br)n2[C@@H]2O[C@@H]3COP(=O)([O-])O[C@H]3[C@H]2O)c(=O)[nH]1.[Na+] [8-Bromo-cGMP sodium]
mean [19]: 2.652
Replicate_1 [20]: 4.1
Replicate_2 [21]: 1.204

NC(=O)c1ccccc1 [Benzamide]
inhibition at 5 µM [25]: 0.755%
inhibition at 5 µM [26]: 1.21%
inhibition at 5 µM [27]: 0.297%

Cl.O=C(O)Cc1c[nH]cn1 [Imidazole-4-acetic acid hydrochloride]
mean [16]: 0.8241
Replicate_1 [17]: 2.255
Replicate_2 [18]: -0.6064

CC1=C(CC(=O)O)c2cc(F)ccc2/C1=C\c1ccc(S(C)(=O)=O)cc1 [Sulindac sulfone]
mean (sheet LOPAC_screen_w_protease, LOPAC1280 primary screen at 5 µM, with protease, mean of two replicates): -1.258
Replicate_1 [17]: 0.6759
Replicate_2 [18]: -3.192

CCOC(=O)N1CCC(=C2c3ccc(Cl)cc3CCc3cccnc32)CC1 [Loratadine]
inhibition at 5 µM [25]: 0.729%
inhibition at 5 µM [26]: -0.189%
inhibition at 5 µM [27]: 1.65%

CC(C)N(CCC(C(N)=O)(c1ccccc1)c1ccccn1)C(C)C (stereo not drawn) [Disopyramide]
inhibition at 5 µM (sheet LOPAC_screen_w_protease, primary screen of LOPAC1280 at 5 µM with protease, mean of the two replicates, read-out: mean): 3.48%
inhibition at 5 µM (sheet LOPAC_screen_w_protease, primary screen of LOPAC1280 at 5 µM with protease, replicate 1, read-out: Replicate_1): 4.56%
inhibition at 5 µM (sheet LOPAC_screen_w_protease, primary screen of LOPAC1280 at 5 µM with protease, replicate 2, read-out: Replicate_2): 2.4%

CCN(CC)CCNC(=O)c1ccc(NC(C)=O)cc1.Cl [N-Acetylprocainamide hydrochloride]
mean (LOPAC_screen_w_protease) [1]: 1.374
Replicate_1 (LOPAC_screen_w_protease) [2]: 0.6051
Replicate_2 (LOPAC_screen_w_protease) [3]: 2.1421

Cl.NCCc1ccc(S(=O)(=O)F)cc1
mean [16]: 0.6027
Replicate_1 [17]: 1.03
Replicate_2 [18]: 0.1751

CC(=O)O.NC(=NCCC[C@H](N)C(=O)O)NO [NG-Hydroxy-L-arginine acetate]
mean [28]: 2.232
Replicate_1 [29]: 2.489
Replicate_2 [30]: 1.975

CC(C)NCC(O)COc1cccc2[nH]ccc12 (stereo not drawn) [S(-)-Pindolol]
mean (LOPAC_screen_w_protease) [31]: 1.809
Replicate_1 (LOPAC_screen_w_protease) [2]: 1.519
Replicate_2 (LOPAC_screen_w_protease) [3]: 2.1
mean [22]: 0.4162
Replicate_1 [23]: 1.799
Replicate_2 [24]: -0.9667

O=c1nc2[nH]c3ccccc3nc-2c(=O)[nH]1 [Alloxazine]
inhibition at 5 µM [4]: 4.73%
inhibition at 5 µM [5]: 4.91%
inhibition at 5 µM [6]: 4.55%

Br.CCCN1CCc2cc(O)cc3c2[C@H]1Cc1ccc(O)c(O)c1-3
mean (LOPAC screen with protease) [10]: 94.9167
Replicate_1 (LOPAC screen with protease) [11]: 94.651
Replicate_2 (LOPAC screen with protease) [12]: 95.1824

Cl.Fc1ccc(CN(C2=NCCN2)c2c(Cl)cccc2Cl)cc1 [IMID-4F hydrochloride]
mean [22]: -0.6347
Replicate_1 [23]: -0.8698
Replicate_2 [24]: -0.3997

Cl.N=C(N)NC(=N)Nc1cccc(Cl)c1
mean (LOPAC_screen_w_protease) [31]: 1.751
Replicate_1 (LOPAC_screen_w_protease) [2]: 2.329
Replicate_2 (LOPAC_screen_w_protease) [3]: 1.173

COc1ccc2[nH]cc(CCN)c2c1.Cl [O-Methylserotonin hydrochloride]
mean (LOPAC_screen_w_protease) [31]: 2.11
Replicate_1 (LOPAC_screen_w_protease) [2]: 3.3171
Replicate_2 (LOPAC_screen_w_protease) [3]: 0.9034

[Cl-].[Li+] [Lithium Chloride]
mean [16]: 0.7152
Replicate_1 [17]: 0.8231
Replicate_2 [18]: 0.6073

CNCCCC1c2ccccc2C=Cc2ccccc21 [Protriptyline hydrochloride]
inhibition at 5 µM (read-out: Replicate_1): 1.19%
inhibition at 5 µM (read-out: Replicate_2): -0.325%
inhibition at 5 µM (read-out: mean): 0.431%

CNCCNS(=O)(=O)c1cccc2cnccc12.Cl.Cl [H-8 dihydrochloride]
mean (LOPAC screen with protease) [10]: 10.4369
Replicate_1 (LOPAC screen with protease) [11]: 9.7701
Replicate_2 (LOPAC screen with protease) [12]: 11.1038

CCCn1c(=O)[nH]c(=O)c2nc[nH]c21 [3-n-Propylxanthine]
mean [28]: 2.529
Replicate_1 [29]: 1.492
Replicate_2 [30]: 3.5659

O=C1NC(=O)C(c2ccccc2)(c2ccccc2)N1 [5,5-Diphenylhydantoin]
inhibition at 5 µM [7]: 1.1%
inhibition at 5 µM [8]: 1.83%
inhibition at 5 µM [9]: 0.367%
